The target in experiment [1] is T1, Histone-lysine N-methyltransferase NSD3 (Homo sapiens, UniProt Q9BZ95).
T1 sequence (Q9BZ95 whole entry): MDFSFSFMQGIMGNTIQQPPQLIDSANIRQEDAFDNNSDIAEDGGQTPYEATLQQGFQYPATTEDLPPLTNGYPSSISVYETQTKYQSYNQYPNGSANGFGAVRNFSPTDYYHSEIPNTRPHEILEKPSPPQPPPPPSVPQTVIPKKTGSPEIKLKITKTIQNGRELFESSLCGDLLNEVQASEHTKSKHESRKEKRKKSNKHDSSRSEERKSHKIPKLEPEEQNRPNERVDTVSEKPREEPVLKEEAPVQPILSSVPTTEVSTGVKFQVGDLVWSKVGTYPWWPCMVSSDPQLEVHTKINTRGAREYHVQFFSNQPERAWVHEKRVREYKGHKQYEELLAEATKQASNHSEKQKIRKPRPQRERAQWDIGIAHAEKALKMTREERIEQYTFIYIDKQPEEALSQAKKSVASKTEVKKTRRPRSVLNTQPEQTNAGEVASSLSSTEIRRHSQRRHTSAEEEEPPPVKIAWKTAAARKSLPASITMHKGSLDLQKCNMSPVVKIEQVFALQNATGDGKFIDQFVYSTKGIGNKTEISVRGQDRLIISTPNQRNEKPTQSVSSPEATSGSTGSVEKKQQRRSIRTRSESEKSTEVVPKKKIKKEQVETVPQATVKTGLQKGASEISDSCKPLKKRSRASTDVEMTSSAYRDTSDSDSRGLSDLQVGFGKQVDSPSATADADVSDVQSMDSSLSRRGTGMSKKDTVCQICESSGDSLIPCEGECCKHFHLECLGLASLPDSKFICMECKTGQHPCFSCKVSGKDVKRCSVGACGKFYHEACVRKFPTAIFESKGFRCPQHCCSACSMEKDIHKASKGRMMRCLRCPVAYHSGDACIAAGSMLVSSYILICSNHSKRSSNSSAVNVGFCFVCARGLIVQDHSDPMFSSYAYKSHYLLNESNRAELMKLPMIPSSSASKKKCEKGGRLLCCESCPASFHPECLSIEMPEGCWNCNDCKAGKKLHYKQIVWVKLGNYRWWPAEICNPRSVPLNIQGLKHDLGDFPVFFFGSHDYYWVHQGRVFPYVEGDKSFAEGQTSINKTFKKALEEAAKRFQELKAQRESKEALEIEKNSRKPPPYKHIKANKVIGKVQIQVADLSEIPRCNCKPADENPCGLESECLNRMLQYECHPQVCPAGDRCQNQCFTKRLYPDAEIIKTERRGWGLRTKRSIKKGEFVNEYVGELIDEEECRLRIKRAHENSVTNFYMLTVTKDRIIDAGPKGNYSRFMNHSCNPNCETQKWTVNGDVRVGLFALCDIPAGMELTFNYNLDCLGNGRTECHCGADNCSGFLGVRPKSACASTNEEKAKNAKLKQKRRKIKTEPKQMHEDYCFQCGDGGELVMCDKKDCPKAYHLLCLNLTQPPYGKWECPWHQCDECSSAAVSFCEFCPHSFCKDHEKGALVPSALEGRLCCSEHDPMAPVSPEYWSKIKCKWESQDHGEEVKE
The experiment in a line: Inhibition of recombinant NSD3 (1021 to 1322 residues) (unknown origin) expressed in Escherichia coli Rossetta (DE3).

Experiment [2] concerns the target T1, Histone-lysine N-methyltransferase NSD3. Briefly: Inhibition of recombinant NSD3 (1021 to 1322 residues) (unknown origin) expressed in Escherichia coli Rossetta (DE3) using H3K36me1 as substrate incubated for 20 mins in presence of SAM by HTRF assay.
Experiment [3] in a line: Inhibition of cell proliferation of rat RN 22 cells incubated for 6 days by Real-time Glow MT assay. The format is functional, cell-based. The following applies: RN 22, 144 h.
Experiment [4] concerns the target T2, Histone-lysine N-methyltransferase NSD2 (Homo sapiens, UniProt O96028).
T2 sequence (O96028 whole entry): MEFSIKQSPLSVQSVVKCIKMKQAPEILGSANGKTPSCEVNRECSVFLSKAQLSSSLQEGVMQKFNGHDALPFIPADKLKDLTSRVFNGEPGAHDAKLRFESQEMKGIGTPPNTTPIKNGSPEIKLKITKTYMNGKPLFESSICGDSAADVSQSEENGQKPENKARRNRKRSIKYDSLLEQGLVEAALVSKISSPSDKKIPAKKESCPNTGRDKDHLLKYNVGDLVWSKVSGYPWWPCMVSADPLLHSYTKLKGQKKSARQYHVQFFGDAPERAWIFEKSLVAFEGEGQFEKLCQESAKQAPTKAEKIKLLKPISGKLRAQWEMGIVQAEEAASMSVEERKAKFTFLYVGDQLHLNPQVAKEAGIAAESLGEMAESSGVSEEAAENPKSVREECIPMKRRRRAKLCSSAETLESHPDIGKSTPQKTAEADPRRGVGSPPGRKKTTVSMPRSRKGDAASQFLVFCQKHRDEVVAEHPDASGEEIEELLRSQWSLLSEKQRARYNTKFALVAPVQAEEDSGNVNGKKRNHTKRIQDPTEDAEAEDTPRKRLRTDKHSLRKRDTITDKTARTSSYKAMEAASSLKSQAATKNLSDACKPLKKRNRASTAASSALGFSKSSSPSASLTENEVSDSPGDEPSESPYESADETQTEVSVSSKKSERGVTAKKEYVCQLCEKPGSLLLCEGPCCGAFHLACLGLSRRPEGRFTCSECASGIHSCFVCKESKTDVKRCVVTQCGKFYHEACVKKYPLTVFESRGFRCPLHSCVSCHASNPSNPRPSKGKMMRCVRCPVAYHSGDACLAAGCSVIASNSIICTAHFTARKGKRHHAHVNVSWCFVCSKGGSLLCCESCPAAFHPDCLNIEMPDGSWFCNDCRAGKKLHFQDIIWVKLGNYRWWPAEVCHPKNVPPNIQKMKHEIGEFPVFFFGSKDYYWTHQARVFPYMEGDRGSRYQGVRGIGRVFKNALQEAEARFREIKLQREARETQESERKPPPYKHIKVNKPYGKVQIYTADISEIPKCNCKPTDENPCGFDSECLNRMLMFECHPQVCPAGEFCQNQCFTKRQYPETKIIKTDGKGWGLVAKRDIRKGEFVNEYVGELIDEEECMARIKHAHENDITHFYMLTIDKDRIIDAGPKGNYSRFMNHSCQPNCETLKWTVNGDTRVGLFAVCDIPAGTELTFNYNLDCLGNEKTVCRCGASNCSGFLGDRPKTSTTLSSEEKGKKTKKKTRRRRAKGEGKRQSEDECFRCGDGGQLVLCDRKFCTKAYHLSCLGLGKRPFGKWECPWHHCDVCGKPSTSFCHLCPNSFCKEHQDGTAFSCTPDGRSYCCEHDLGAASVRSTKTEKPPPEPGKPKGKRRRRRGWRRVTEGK
Briefly: Inhibition of recombinant NSD2 (942 to 1240 residues) (unknown origin) expressed in Escherichia coli Rossetta (DE3) using H3K36me1 as substrate incubated for 20 mins in presence of SAM by HTRF assay.

As to `Cc1ccc(OCCn2c(S)nc3c(N)ncnc32)cc1`, in experiment [1], the IC50 worked out at 14.3 µM.

Regarding `Nc1ccc(OCCn2cnc3c(N)ncnc32)cc1`, the IC50 entry in experiment [2] is reported as “Not Active”.

On to `N#Cc1ccc(OCCn2c(Br)nc3c(N)ncnc32)cc1`, for which, in experiment [2], the IC50 entry is “Not Active”.

In experiment [3], `Cc1cc(CN)cc(C)c1-c1ncn(C)c1-c1ccnc2cc(F)ccc12` had an IC50 of 13 µM.

Turning to `CC(=O)Nc1ccc(OCCn2cnc3c(N)ncnc32)cc1`, the half-inhibitory concentration (IC50) result in experiment [2] is on record as “Not Active”.

As for `CSc1nc2c(N)ncnc2n1CCOc1ccc(C#N)cc1`, the IC50 entry in experiment [2] and in experiment [4] was “Not Active” in each case.

For the compound `CC(C)Oc1ccc(OCCn2c(S)nc3c(N)ncnc32)cc1`, the concentration for half-maximal inhibition (IC50) in experiment [1] is 13.8 µM.

For the compound `N#Cc1ccccc1OCCn1cnc2c(N)ncnc21`, the IC50 result in experiment [2] was “Not Active”.

Consider `CCOc1ccc(OCCn2c(S)nc3c(N)ncnc32)cc1`, for which the half-maximal inhibitory concentration (IC50) in experiment [1] worked out at 32.2 µM.

As to `Nc1ncnc2c1ncn2CCOc1ccccc1Cl`, the IC50 result in experiment [2] is “Not Active”.

For the origin of these results see ChEMBL document CHEMBL5512626, “Discovery of potent small molecule inhibitors of histone lysine methyltransferase NSDs” (Eur J Med Chem, 2024).
